Measured values reported in article PMC2654417 (Combinatorial chemistry & high throughput screening, 2008).
Like-named read-outs stand apart in the source and are kept apart here.

Tests used:
[1] = biological target: T1, glucocorticoid receptor (GR) (Homo sapiens, UniProt P04150); experiment: GR-EFC nuclear translocation assay; format: cell-based; conditions: for qHTS Hill Slope: Hill slope of the qHTS curve fit; for qHTS Max Activity: maximal activity of the qHTS curve, inactive threshold […] (3σ); for log qEC50: log10 of qEC50 in M, printed as negative values
T1 sequence (P04150 1-777): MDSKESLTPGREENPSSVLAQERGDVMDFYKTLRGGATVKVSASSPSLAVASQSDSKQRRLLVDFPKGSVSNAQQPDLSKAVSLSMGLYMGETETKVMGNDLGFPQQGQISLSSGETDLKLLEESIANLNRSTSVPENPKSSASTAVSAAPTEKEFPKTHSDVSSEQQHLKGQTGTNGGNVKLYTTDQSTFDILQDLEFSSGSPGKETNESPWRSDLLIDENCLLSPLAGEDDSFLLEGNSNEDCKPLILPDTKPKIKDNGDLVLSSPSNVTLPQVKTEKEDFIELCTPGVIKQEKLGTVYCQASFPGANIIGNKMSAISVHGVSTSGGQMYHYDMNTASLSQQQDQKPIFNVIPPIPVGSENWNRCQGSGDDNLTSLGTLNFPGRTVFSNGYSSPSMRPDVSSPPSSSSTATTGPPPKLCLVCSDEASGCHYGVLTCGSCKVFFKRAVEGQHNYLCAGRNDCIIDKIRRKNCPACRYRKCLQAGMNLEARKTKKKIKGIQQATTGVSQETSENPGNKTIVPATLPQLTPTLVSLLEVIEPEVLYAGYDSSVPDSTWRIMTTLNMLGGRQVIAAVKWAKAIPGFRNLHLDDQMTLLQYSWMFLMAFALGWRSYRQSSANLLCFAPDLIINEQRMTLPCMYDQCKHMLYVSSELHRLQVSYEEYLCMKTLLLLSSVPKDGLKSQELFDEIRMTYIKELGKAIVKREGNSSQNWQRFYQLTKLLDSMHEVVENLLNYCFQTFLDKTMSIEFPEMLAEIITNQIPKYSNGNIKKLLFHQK

[2] = biological target: T1, glucocorticoid receptor (GR); conditions: GR-rich cell extract; cited from earlier work
[3] = read-out: qEC50, qHTS curve fit, class 4 values are fit defaults
[4] = class 4 values are fit defaults

| Compound | EC50 [1, 3] [nM] | EC50 ([1]; read-out: qEC50) [nM] | qHTS Hill Slope [1] | qHTS Max Activity [1] | log qEC50 [1, 4] | qHTS Curve Class [1] | other results |
| --- | --- | --- | --- | --- | --- | --- | --- |
| C[C@]12C[C@H](O)[C@H]3[C@@H](CCC4=CC(=O)CC[C@@]43C)[C@@H]1CC[C@@H]2C(=O)CO [Corticosterone, reference compound] |  |  |  |  |  |  | EC50 [1]: 36 nM; IC50/Kd [3H]dex binding assay [2]: 0.048 [39] μM |
| C[C@H](CCC(=O)O)[C@H]1CC[C@H]2[C@@H]3[C@H](O)C[C@@H]4C[C@H](O)CC[C@]4(C)[C@H]3C[C@H](O)[C@]12C [NCGC00013426-01] | > 9000 |  |  |  |  |  |  |
| C[C@@]12CC[C@H]3[C@@H](CC[C@@H]4C[C@H](O)CC[C@]43C)[C@H]1CC[C@H]2O [NCGC00015090-01] | > 9000 |  |  |  |  |  |  |
| C#C[C@@]1(O)CC[C@@H]2[C@@H]3CCC4=CC(=O)CC[C@@]4(C)[C@H]3CC[C@]21C [NCGC00016444-01] |  |  | 0.97 | 15.2 |  |  |  |
| C[C@@]12CCC(=O)C=C1CC[C@@H]1[C@@H]2[C@H](O)C[C@]2(C)[C@@H]1CC[C@]2(O)C(=O)COC(=O)CCC(=O)[O-].[Na+] [NCGC00016153-01] | 1120 |  | 0.62 | 100.0 | −5.952 |  |  |
| COc1cc2c(cc1OC)-c1c(OC)c(OC)c(CO)c3c1[C@H](C2)N(C)CC3 [NCGC00017307-01] |  | > 9000 |  |  |  | 4 (inactive, where activity was below 28.6% (3σ for the present assay)) |  |
| CC(=O)[C@@]1(O)CC[C@@H]2[C@@H]3CCC4=CC(=O)CC[C@@]4(C)[C@H]3CC[C@]21C [NCGC00015510-01] |  |  | 0.35 | 100.0 |  |  |  |
| C[C@@]12CCC(=O)C=C1CC[C@H]1[C@H]3CC[C@](O)(C(=O)CO)[C@]3(C)CC[C@@H]12 [NCGC00015886-01] | 434 |  | 0.59 | 41.2 | −6.363 |  |  |
| C[C@H]1CC[C@@]2(NC1)O[C@@H]1C[C@H]3[C@@H]4CC=C5C[C@@H](O)CC[C@]5(C)[C@@H]4CC[C@]3(C)[C@@H]1[C@@H]2C [NCGC00016381-01] | > 9000 |  |  |  |  |  |  |

Now from value to compound, other results behind:

| EC50 [1, 3] [nM] | EC50 ([1]; read-out: qEC50) [nM] | qHTS Hill Slope [1] | qHTS Max Activity [1] | log qEC50 [1, 4] | Compound | qHTS Curve Class [1] | other results |
| --- | --- | --- | --- | --- | --- | --- | --- |
|  | > 9000 |  |  |  | C#C[C@]1(O)CC[C@H]2[C@@H]3CCC4=CCCC[C@@H]4[C@H]3CC[C@@]21C [NCGC00016233-01] | 4 (inactive, where activity was below 28.6% (3σ for the present assay)) |  |
| 82.7 |  | 1.15 | 67.5 | −7.082 | C[C@]12C=CC(=O)C=C1CC[C@@H]1[C@H]3C[C@@H](O)[C@](O)(C(=O)CO)[C@@]3(C)C[C@H](O)[C@]12F [NCGC00016376-01] |  |  |
|  |  | 0.75 | 74.0 |  | CC(=O)OCC(=O)[C@@]1(O)CC[C@@H]2[C@H]3CCC4=CC(=O)CC[C@]4(C)[C@]3(F)[C@@H](O)C[C@@]21C [NCGC00016476-01] |  |  |
|  | > 9000 |  |  |  | C[C@H]1[C@H](C)CC[C@@]2(C(=O)O)CC[C@]3(C)C(=CC[C@@H]4[C@@]5(C)CC[C@H](O)C(C)(C)[C@@H]5CC[C@@]43C)[C@@H]12 [NCGC00017223-01] | 4 (inactive, where activity was below 28.6% (3σ for the present assay)) |  |
| 4.85 |  | 0.57 | 97.1 | −8.315 | CC1(C)O[C@@H]2C[C@H]3[C@@H]4C[C@H](F)C5=CC(=O)C=C[C@]5(C)[C@H]4[C@@H](O)C[C@]3(C)[C@]2(C(=O)CO)O1 [NCGC00016983-01] |  |  |
|  | > 9000 |  |  |  | C=C(C)[C@H]1CC[C@]2(C(=O)O)CC[C@]3(C)[C@@H](CC[C@H]4[C@@]5(C)CC[C@@H](O)C(C)(C)[C@@H]5CC[C@@]43C)[C@H]12 [NCGC00016449-01] | 4 (inactive, where activity was below 28.6% (3σ for the present assay)) |  |
| 55.7 |  | 0.49 | 47.2 | −7.254 | CC(=O)O[C@]1(C(C)=O)CC[C@H]2[C@@H]3C=C(C)C4=CC(=O)CC[C@]4(C)[C@H]3CC[C@@]21C [NCGC00016516-01] |  |  |
|  | > 9000 |  |  |  | C#C[C@]1(O)CC[C@@H]2[C@H]3CCC4=Cc5oncc5C[C@]4(C)[C@@H]3CC[C@@]21C [NCGC00016726-01] | 4 (inactive, where activity was below 28.6% (3σ for the present assay)) |  |
|  | > 9000 |  |  |  | CC1(C)[C@@H](O)CC[C@@]2(C)[C@H]1CC[C@]1(C)[C@H]2C(=O)C=C2[C@@H]3C[C@@](C)(C(=O)O)CC[C@]3(C)CC[C@@]21C [NCGC00017244-01] | 4 (inactive, where activity was below 28.6% (3σ for the present assay)) |  |
| 8.21 |  | 0.63 | 84.0 | −8.086 | CC(=O)[C@@]1(O)CC[C@H]2[C@@H]3C[C@H](C)C4=CC(=O)C=C[C@]4(C)[C@@]3(F)[C@@H](O)C[C@@]21C [NCGC00016442-01] |  |  |
